Literature values as cited in patent publication EP2055233B1 (priority 2003, dated 2004).

Tests used:
[1] = in vivo, iv

In the case of `CC(C)c1cccc(C(C)C)c1O` [propofol, 2,6-diisopropylphenol], the “dose recovered in urine as hydroxylated and conjugated metabolites” value is given as 88% and the plasma concentration [1] is given as 1000 to 10000 ng/mL.
